# Biological target: T1, Cholecystokinin receptor type A (Homo sapiens, UniProt P32238)
# T1 sequence (P32238 whole entry): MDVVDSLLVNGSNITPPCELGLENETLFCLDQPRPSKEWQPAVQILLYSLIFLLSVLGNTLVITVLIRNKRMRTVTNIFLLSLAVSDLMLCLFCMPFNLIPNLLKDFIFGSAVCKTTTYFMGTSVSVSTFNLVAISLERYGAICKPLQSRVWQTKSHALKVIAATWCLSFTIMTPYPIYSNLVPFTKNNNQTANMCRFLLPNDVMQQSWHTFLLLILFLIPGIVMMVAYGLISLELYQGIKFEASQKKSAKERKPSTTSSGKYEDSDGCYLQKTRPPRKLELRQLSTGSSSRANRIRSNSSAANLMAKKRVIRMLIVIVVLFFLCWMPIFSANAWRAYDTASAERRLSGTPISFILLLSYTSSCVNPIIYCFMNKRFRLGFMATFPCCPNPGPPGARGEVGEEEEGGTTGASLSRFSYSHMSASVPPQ
# Test: Concentration required for 50% inhibition of cholecystokinin A(CCK A)
row,SMILES,IC50 [nM]
1,CCCCCN(CCCCC)C(=O)C(Cc1c[nH]c2ccccc12)NC(=O)c1ccc(Cl)c(Cl)c1 (stereo not given),190

# Biological target: T2, Substance-P receptor (Homo sapiens, UniProt P25103)
# T2 sequence (P25103 whole entry): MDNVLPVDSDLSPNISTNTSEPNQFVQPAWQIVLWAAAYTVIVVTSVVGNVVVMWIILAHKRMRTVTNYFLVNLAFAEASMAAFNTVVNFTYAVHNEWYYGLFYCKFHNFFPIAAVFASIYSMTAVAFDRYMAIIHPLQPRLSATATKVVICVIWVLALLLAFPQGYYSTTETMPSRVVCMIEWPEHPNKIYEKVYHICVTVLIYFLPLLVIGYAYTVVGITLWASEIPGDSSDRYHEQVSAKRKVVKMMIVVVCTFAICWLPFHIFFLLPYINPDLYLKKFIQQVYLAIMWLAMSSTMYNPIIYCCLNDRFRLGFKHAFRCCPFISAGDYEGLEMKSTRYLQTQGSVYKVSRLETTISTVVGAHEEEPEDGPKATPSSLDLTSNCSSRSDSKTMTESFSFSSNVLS
# Test: Tested for affinity against NK-1(Neurokinin-1) receptor expressed as pKi
row,SMILES,Ki [nM]
1,CN(Cc1cc(C(F)(F)F)cc(C(F)(F)F)c1)C(=O)N1CC(=O)Nc2ccccc2C1c1ccccc1 (stereo not given),10
2,CC1c2ccccc2NCCN1C(=O)N(C)Cc1cc(C(F)(F)F)cc(C(F)(F)F)c1 (stereo not given),39.8
3,CC1c2ccccc2NC(=O)CN1C(=O)N(C)Cc1cc(C(F)(F)F)cc(C(F)(F)F)c1 (stereo not given),31.6
4,CC1c2ccccc2N(C)C(=O)CN1C(=O)N(C)Cc1cc(C(F)(F)F)cc(C(F)(F)F)c1 (stereo not given),1000
5,CN(Cc1cc(C(F)(F)F)cc(C(F)(F)F)c1)C(=O)N1CC(=O)Nc2ccccc2C1CN1CCOCC1 (stereo not given),794
6,COC(=O)C1c2ccccc2NC(=O)CN1C(=O)N(C)Cc1cc(C(F)(F)F)cc(C(F)(F)F)c1 (stereo not given),316
7,O=C1CN(C(=O)NCc2cc(C(F)(F)F)cc(C(F)(F)F)c2)C(c2ccccc2)c2ccccc2N1 (stereo not given),631
8,CN(Cc1ccccc1)C(=O)N1CC(=O)Nc2ccccc2C1c1ccccc1 (stereo not given),1000

# Biological target: T2, Substance-P receptor
# Test: Concentration required for 50% inhibition of neurokinin-1 receptor
row,SMILES,IC50 [nM]
1,CC(=O)NC(Cc1c[nH]c2ccccc12)C(=O)N(C)Cc1ccccc1 (stereo not given),750
